Measured values from US20090036417A1, “COCHLEATES WITHOUT METAL CATIONS AS BRIDGING AGENTS” (priority 2002, published 2009).

How the values were obtained:
[1] = Loading capacity of cochleates for molecules as bridging agents (UV absorption / HPLC); type: physicochemical; conditions: with the lipid amount of column Lipids (mg): 5 mg for TAPS, 38.11 mg for Tobramycine
Protocol: Loading capacities of the new cochelates and nano-cochleates for TAS and tobramycin were determined. For TAS, known amounts of cochleates or nano-cochleates were first dissolved with chloroform, then added with water (pH=2), followed by strong shaking. The water phase was separated hereafter, and the same procedure was repeated two more times. The water phases collected three times were combined. The concentration of the extract was determined by UV absorption at 380 nm. […] The loading amount was determined based on the decreased concentration in the supernatant after cochleate formation. For mobile phase, 2.0 g of tris (hydroxymethyl) aminomethan was first dissolved with 800 ml of water, followed by addition of 20 ml of 1N H2SO4 and acetanitrile to a total volume of 2000 ml. For detectability, a solution of 2,4-dinitrofluourobene (10 mg/ml in alcohol) was prepared within 5 days prior to use and refrigerated. A water solution of tris (hydroxymethyl) aminomethane (15 mg/ml) was also prepared as a stock solution. Within 4 hours of analysis, this stock solution, 40 ml, was diluted with dimethyl sulfoxide (DMSO) to 200 ml. […] For the supernatant (the sample to be measured), 1 ml of 5.5 mg/ml of tobramycin solution was added into a liposome suspension with a lipid-to-drug ratio of 1:5. […]

E. Coli cell line, DH5α = assay: Antibiotic activity of tobramycin in solution, cochleates and nano-cochleates (colony counting); type: cell-based; conditions: 0.5 μg/ml, 37° C., 24 hrs
Protocol: FIG. 9. Antibiotic activity of tobramycin formulated in solution, cochleates and nano-cochleates. The drug of various doses were added to E. Coli prior to incubation at 37° C., followed by counting of the colonies. Tobramycin was selected as a model drug to examine the capability of cochelates and nano-cochleates to deliver hydrophilic drugs across cell membranes because the antibiotic function of tobramycin relies on its binding to ribosomes inside of cells. In other words, tobramycin's antibiotic activity reflects internalization of the drug into the cells. For this purpose, tobramycin-loaded cochleates and nano-cochleates prepared as in Example 2 were incubated with E. Coli at various doses. As a control, a tobramycin solution was also incubated with E. Coli under identical conditions. Experimentally, one drop of E. Coli cell line, DH5α, was added to 2 ml LB Broth solution and incubated at 37° C. for 24 hrs to prepare 1:10 DH5α culture solution. Then, 5 ul of the DH5α culture solution was diluted to 2 ml and tobramycin was added in the form of cochleates and nano-cochleates at the final concentrations of 0, 0.5, 1.0, 2.5, and 5.0 μg/ml, respectively. The tobramycin-added cell cultures were incubated at 37° C., with shaking at 200 rpm, for 24 hrs. […]

Drug (mg) loaded in cochleates [1]: 5.5 mg
SMILES: NC[C@H]1O[C@H](O[C@H]2[C@H](O)[C@@H](O[C@H]3O[C@H](CO)[C@@H](O)[C@H](N)[C@H]3O)[C@H](N)C[C@@H]2N)[C@H](N)C[C@@H]1O [Tobramycine, tobramycin]
antibiotic activity of drug solution relative to large cochleates (E. Coli cell line, DH5α): 75 times | antibiotic activity of drug solution relative to nano-cochleates (E. Coli cell line, DH5α): slightly higher
